Test results taken from patent US10168342B2, “Lipid probes and uses thereof” (THE SCRIPPS RESEARCH INSTITUTE, priority 2015, dated 2019).

Experiments:
Assay in all cases: In situ competitive SILAC profiling with A-DA probe in (PMA-stimulated) A549 cells
Settings in all cases: A549 cells, A-DA probe
[1] = molecular target: T1, A-DA lipid probe targets in A549 cells (Homo sapiens, UniProt Q6P1A2)
T1 sequence (Q6P1A2 1-487): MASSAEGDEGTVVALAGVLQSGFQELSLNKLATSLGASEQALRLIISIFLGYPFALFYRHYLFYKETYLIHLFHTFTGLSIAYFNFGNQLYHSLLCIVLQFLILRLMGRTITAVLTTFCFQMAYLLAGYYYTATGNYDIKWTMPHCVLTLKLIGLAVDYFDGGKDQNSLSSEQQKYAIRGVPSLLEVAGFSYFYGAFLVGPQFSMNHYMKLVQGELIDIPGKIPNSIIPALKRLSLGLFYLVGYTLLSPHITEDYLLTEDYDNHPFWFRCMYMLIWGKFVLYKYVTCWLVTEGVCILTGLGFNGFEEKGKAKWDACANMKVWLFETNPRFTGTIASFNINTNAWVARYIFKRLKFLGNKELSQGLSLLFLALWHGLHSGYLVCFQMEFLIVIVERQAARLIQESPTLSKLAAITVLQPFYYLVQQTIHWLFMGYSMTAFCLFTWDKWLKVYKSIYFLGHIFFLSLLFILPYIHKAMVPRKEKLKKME

[2] = molecular target: T2, A-DA lipid probe targets in A549 cells (Homo sapiens, UniProt O75911)
T2 sequence (O75911 1-302): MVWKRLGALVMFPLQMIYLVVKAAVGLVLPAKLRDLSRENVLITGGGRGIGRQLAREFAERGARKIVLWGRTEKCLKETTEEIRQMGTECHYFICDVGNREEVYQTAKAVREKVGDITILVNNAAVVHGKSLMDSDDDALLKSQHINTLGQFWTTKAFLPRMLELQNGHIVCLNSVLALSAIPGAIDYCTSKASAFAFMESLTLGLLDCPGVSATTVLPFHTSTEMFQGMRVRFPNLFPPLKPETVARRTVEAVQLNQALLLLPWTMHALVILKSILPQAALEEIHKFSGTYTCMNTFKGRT

[3] = molecular target: T3, A-DA lipid probe targets in A549 cells (Homo sapiens, UniProt Q9HAW7)
T3 sequence (Q9HAW7 26-530): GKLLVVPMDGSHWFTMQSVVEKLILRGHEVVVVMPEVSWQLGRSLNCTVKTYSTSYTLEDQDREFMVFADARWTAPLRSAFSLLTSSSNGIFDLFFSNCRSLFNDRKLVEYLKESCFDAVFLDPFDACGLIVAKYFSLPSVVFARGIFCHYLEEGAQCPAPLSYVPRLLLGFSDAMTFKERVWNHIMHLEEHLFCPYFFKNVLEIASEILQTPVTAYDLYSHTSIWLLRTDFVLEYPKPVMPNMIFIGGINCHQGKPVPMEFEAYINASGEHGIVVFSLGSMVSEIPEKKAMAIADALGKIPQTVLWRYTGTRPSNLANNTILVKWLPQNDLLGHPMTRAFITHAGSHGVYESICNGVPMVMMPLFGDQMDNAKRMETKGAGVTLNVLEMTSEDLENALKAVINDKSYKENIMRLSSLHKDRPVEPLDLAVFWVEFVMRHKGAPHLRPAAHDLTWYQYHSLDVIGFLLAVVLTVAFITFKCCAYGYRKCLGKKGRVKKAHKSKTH

[4] = molecular target: T4, A-DA lipid probe targets in A549 cells (Homo sapiens, UniProt Q7Z2K6)
T4 sequence (Q7Z2K6 1-904): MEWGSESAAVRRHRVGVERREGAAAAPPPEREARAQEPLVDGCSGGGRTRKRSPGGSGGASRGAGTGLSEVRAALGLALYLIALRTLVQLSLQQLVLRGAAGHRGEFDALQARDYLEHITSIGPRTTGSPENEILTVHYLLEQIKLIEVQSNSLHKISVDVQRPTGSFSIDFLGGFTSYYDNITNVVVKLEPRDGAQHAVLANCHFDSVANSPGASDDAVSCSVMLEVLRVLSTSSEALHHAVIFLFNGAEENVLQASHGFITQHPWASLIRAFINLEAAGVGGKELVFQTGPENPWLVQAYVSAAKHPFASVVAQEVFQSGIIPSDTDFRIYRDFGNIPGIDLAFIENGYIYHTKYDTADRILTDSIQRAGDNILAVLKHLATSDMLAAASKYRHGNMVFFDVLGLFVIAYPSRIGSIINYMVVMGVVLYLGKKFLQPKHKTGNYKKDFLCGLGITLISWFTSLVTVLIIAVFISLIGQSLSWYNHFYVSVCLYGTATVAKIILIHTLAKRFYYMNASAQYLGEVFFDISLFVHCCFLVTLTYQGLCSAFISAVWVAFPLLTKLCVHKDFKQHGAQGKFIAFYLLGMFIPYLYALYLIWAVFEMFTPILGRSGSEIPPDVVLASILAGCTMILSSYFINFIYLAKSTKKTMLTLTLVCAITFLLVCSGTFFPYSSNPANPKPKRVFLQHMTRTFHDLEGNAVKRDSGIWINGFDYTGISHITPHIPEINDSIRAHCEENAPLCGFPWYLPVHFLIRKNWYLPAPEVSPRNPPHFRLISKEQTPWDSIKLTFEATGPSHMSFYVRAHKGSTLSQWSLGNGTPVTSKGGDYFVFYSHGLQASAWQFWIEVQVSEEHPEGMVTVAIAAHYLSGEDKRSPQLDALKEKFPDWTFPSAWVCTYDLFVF

[5] = molecular target: T5, A-DA lipid probe targets in A549 cells (Homo sapiens, UniProt Q53GQ0)
T5 sequence (Q53GQ0 1-312): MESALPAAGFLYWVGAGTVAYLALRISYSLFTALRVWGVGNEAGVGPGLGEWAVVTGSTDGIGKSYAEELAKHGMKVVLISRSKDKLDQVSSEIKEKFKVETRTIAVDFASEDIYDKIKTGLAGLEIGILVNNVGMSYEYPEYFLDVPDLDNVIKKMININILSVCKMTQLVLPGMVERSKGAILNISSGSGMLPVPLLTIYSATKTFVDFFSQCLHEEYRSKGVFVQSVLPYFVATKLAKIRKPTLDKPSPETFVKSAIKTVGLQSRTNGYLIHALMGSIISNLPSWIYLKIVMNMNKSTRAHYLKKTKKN

Structure (SMILES)	SILAC ratio, LPCAT3 (Q6P1A2) ([1]; competitor 25 μM)	SILAC ratio, DHRS3 (O75911) ([2]; competitor 25 μM)	SILAC ratio, UGT1A7 (Q9HAW7) ([3]; competitor 25 μM)	SILAC ratio, ERMP1 (Q7Z2K6) ([4]; competitor 25 μM)	SILAC ratio, HSD17B12 (Q53GQ0) ([5]; competitor 25 μM)	SILAC ratio, LPCAT3 (Q6P1A2) ([1]; competitor 5 μM)	SILAC ratio, LPCAT3 (Q6P1A2) ([1]; competitor 50 μM)	SILAC ratio, DHRS3 (O75911) ([2]; competitor 5 μM)	SILAC ratio, DHRS3 (O75911) ([2]; competitor 50 μM)	SILAC ratio, UGT1A7 (Q9HAW7) ([3]; competitor 5 μM)	SILAC ratio, UGT1A7 (Q9HAW7) ([3]; competitor 50 μM)	SILAC ratio, ERMP1 (Q7Z2K6) ([4]; competitor 5 μM)	SILAC ratio, ERMP1 (Q7Z2K6) ([4]; competitor 50 μM)	SILAC ratio, HSD17B12 (Q53GQ0) ([5]; competitor 5 μM)	SILAC ratio, HSD17B12 (Q53GQ0) ([5]; competitor 50 μM)
O=C(/C=C/c1cccnc1)NCCCCC1CCN(C(=O)c2ccccc2)CC1 [FK-866, reference compound]	3.3	2.0	2.1	1.6	1.4										
C=CCN(C)CCCCCCOc1ccc(C(=O)c2ccc(Br)cc2)c(F)c1 [Ro488071]						1.3	2.7	1.8	3.1	1.6	40.0	1.4	3.2	1.4	3.0
